Data reported in PubChem BioAssay (NCI).
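Five concentrations, 48 hours, 96-well plates. TGI marks complete inhibition of growth.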

Assays:
Test in all cases: growth of human tumour cells (NCI), 48 h
[1] = system: 786-0 renal
[2] = system: A549 NSCLC
[3] = system: ACHN renal
[4] = system: BT-549 breast
[5] = system: CCRF-CEM leukemia
[6] = system: COLO 205 colon
[7] = system: DU-145 prostate
[8] = system: EKVX NSCLC
[9] = system: HCC-2998 colon
[10] = system: HCT-116 colon
[11] = system: HCT-15 colon
[12] = system: HL-60(TB) leukemia
[13] = system: HOP-62 NSCLC
[14] = system: HS 578T breast
[15] = system: HT29 colon
[16] = system: IGROV1 ovarian
[17] = system: K-562 leukemia
[18] = system: KM12 colon
[19] = system: LOX IMVI melanoma
[20] = system: M14 melanoma
[21] = system: MALME-3M melanoma
[22] = system: MCF7 breast
[23] = system: MDA-MB-231 breast
[24] = system: MDA-MB-435
[25] = system: MDA-N
[26] = system: MOLT-4 leukemia
[27] = system: NCI-H23 lung
[28] = system: NCI-H460 lung
[29] = system: NCI-H522 lung
[30] = system: NCI/ADR-RES ovarian
[31] = system: OVCAR-3 ovarian
[32] = system: OVCAR-5 ovarian
[33] = system: OVCAR-8 ovarian
[34] = system: PC-3 prostate
[35] = system: RPMI-8226 leukemia
[36] = system: RXF 393 renal
[37] = system: SF-268 CNS
[38] = system: SF-295 CNS
[39] = system: SF-539 CNS
[40] = system: SK-MEL-2 melanoma
[41] = system: SK-MEL-28 melanoma
[42] = system: SK-MEL-5 melanoma
[43] = system: SN12C renal
[44] = system: SNB-19 CNS
[45] = system: SNB-75 CNS
[46] = system: SR leukemia
[47] = system: SW-620 colon
[48] = system: TK-10 renal
[49] = system: U251 CNS
[50] = system: UACC-257 melanoma
[51] = system: UACC-62 melanoma
[52] = system: UO-31 renal
[53] = system: A498 renal
[54] = system: CAKI-1 renal
[55] = system: HOP-92 NSCLC
[56] = system: NCI-H226 lung
[57] = system: OVCAR-4 ovarian
[58] = system: SK-OV-3 ovarian

## C=CCCC(CCC=C)(C(=O)O)C(=O)O
[1]
  TGI: > 100 µM
[2]
  TGI: > 100 µM
[3]
  TGI: > 100 µM
[4]
  TGI: > 100 µM
[5]
  TGI: > 100 µM
[6]
  TGI: > 100 µM
[7]
  TGI: > 100 µM
[8]
  TGI: > 100 µM
[9]
  TGI: > 100000 nM
[10]
  TGI: > 100 µM
[11]
  TGI: > 100 µM
[12]
  TGI: > 100 µM
[13]
  TGI: > 100 µM
[14]
  TGI: > 100 µM
[15]
  TGI: > 100 µM
[16]
  TGI: > 100 µM
[17]
  TGI: > 100 µM
[18]
  TGI: > 100 µM
[19]
  TGI: > 100 µM
[20]
  TGI: > 100 µM
[21]
  TGI: > 100 µM
[22]
  TGI: > 100 µM
[23]
  TGI: > 100 µM
[24]
  TGI: > 100 µM
[25]
  TGI: > 100 µM
[26]
  TGI: > 100 µM
[27]
  TGI: > 100 µM
[28]
  TGI: > 100 µM
[29]
  TGI: > 100 µM
[30]
  TGI: > 100 µM
[31]
  TGI: > 100 µM
[32]
  TGI: > 100 µM
[33]
  TGI: > 100 µM
[34]
  TGI: > 100 µM
[35]
  TGI: > 100 µM
[36]
  TGI: > 100 µM
[37]
  TGI: > 100 µM
[38]
  TGI: > 100 µM
[39]
  TGI: > 100 µM
[40]
  TGI: > 100 µM
[41]
  TGI: > 100 µM
[42]
  TGI: > 100 µM
[43]
  TGI: > 100 µM
[44]
  TGI: > 100 µM
[45]
  TGI: > 100000 nM
[46]
  TGI: > 100 µM
[47]
  TGI: > 100 µM
[48]
  TGI: > 100 µM
[49]
  TGI: > 100 µM
[50]
  TGI: > 100 µM
[51]
  TGI: > 100000 nM
[52]
  TGI: > 100000 nM

## COc1c(C)c(OC)c2c(c1O)[C@@H]1[C@@H]3Cc4c(OC)c(C)c(OC)c(O)c4[C@H](CNC(=O)c4ccc5ccccc5n4)N3[C@@H](C#N)[C@H](C2)N1C
[1]
  TGI: 0.00791 µM
[53]
  TGI: 4.11 nM
[3]
  TGI: > 0.1 µM
[4]
  TGI: 0.00172 µM
[54]
  TGI: 38.4 nM
[6]
  TGI: > 0.1 µM
[7]
  TGI: > 0.0296 µM
[9]
  TGI: 0.7 nM
[10]
  TGI: 0.00585 µM
[11]
  TGI: > 0.0597 µM
[13]
  TGI: 0.0104 µM
[55]
  TGI: 3.22 nM
[14]
  TGI: 0.00741 µM
[15]
  TGI: 0.00491 µM
[16]
  TGI: 0.000858 µM
[17]
  TGI: > 0.1 µM
[18]
  TGI: 0.00227 µM
[19]
  TGI: > 0.1 µM
[20]
  TGI: 0.00267 µM
[21]
  TGI: 0.000743 µM
[22]
  TGI: > 0.1 µM
[23]
  TGI: > 0.0276 µM
[24]
  TGI: 0.00438 µM
[25]
  TGI: 0.00283 µM
[26]
  TGI: 0.0144 µM
[56]
  TGI: 5.71 nM
[27]
  TGI: 0.00187 µM
[28]
  TGI: > 0.0901 µM
[29]
  TGI: 0.000444 µM
[30]
  TGI: > 0.052 µM
[31]
  TGI: 0.0023 µM
[57]
  TGI: 7.42 nM
[32]
  TGI: 0.00353 µM
[33]
  TGI: > 0.1 µM
[34]
  TGI: > 0.0514 µM
[36]
  TGI: 0.00347 µM
[37]
  TGI: 0.0305 µM
[38]
  TGI: > 0.0214 µM
[39]
  TGI: 0.00774 µM
[40]
  TGI: 0.000832 µM
[41]
  TGI: 0.00592 µM
[42]
  TGI: 0.00186 µM
[58]
  TGI: > 0.1 µM
[43]
  TGI: > 0.1 µM
[44]
  TGI: > 0.1 µM
[45]
  TGI: 14.3 nM
[46]
  TGI: 0.000329 µM
[47]
  TGI: 0.00251 µM
[48]
  TGI: 0.0023 µM
[49]
  TGI: > 0.1 µM
[50]
  TGI: 0.00546 µM
[51]
  TGI: 2.36 nM
[52]
  TGI: 8.79 nM

## CN(C)CCCNC(=S)S
[1]
  TGI: > 100 µM
[53]
  TGI: > 100000 nM
[2]
  TGI: > 100 µM
[3]
  TGI: > 100 µM
[4]
  TGI: > 100 µM
[54]
  TGI: > 100000 nM
[5]
  TGI: > 100 µM
[6]
  TGI: > 100 µM
[7]
  TGI: > 100 µM
[8]
  TGI: > 100 µM
[10]
  TGI: > 100 µM
[11]
  TGI: > 100 µM
[12]
  TGI: > 100 µM
[13]
  TGI: > 100 µM
[55]
  TGI: > 100000 nM
[14]
  TGI: > 100 µM
[15]
  TGI: > 100 µM
[16]
  TGI: > 100 µM
[17]
  TGI: > 100 µM
[18]
  TGI: > 100 µM
[19]
  TGI: > 100 µM
[20]
  TGI: > 100 µM
[21]
  TGI: > 100 µM
[22]
  TGI: > 100 µM
[23]
  TGI: > 100 µM
[24]
  TGI: > 100 µM
[25]
  TGI: > 100 µM
[26]
  TGI: > 100 µM
[56]
  TGI: > 100000 nM
[27]
  TGI: > 100 µM
[28]
  TGI: > 100 µM
[29]
  TGI: > 100 µM
[30]
  TGI: > 100 µM
[31]
  TGI: > 100 µM
[57]
  TGI: > 100000 nM
[32]
  TGI: > 100 µM
[33]
  TGI: > 100 µM
[34]
  TGI: > 100 µM
[35]
  TGI: > 100 µM
[36]
  TGI: > 100 µM
[37]
  TGI: > 100 µM
[38]
  TGI: > 100 µM
[39]
  TGI: > 100 µM
[40]
  TGI: > 100 µM
[41]
  TGI: > 100 µM
[42]
  TGI: > 100 µM
[58]
  TGI: > 100 µM
[43]
  TGI: > 100 µM
[44]
  TGI: > 100 µM
[46]
  TGI: > 100 µM
[47]
  TGI: > 100 µM
[48]
  TGI: > 100 µM
[49]
  TGI: > 100 µM
[50]
  TGI: > 100 µM
